Target: Tyrosine-protein kinase ABL1 (Homo sapiens, UniProt P00519)
Assay: Radiometric Filter-Binding Assay: For determination of ABL kinase activity, the radiometric filter-binding assay was used. The assay was performed by mixing 10 μL of the compound pre-diluted with 10 μL of ATP ([…] with 0.1 μCi [γ-33P]-ATP) with the phospho-acceptor peptide poly[Ala6Glu2LysHBr5Tyr1]=polyAEKY) in 20 mM Tris/HCl pH 7.5, 1 mM DTT, 10 mM MgCl2, 0.01 mM Na3VO4, 50 mM NaCl. 10 μL …

Chain of Tyrosine-protein kinase ABL1 (P00519 whole entry): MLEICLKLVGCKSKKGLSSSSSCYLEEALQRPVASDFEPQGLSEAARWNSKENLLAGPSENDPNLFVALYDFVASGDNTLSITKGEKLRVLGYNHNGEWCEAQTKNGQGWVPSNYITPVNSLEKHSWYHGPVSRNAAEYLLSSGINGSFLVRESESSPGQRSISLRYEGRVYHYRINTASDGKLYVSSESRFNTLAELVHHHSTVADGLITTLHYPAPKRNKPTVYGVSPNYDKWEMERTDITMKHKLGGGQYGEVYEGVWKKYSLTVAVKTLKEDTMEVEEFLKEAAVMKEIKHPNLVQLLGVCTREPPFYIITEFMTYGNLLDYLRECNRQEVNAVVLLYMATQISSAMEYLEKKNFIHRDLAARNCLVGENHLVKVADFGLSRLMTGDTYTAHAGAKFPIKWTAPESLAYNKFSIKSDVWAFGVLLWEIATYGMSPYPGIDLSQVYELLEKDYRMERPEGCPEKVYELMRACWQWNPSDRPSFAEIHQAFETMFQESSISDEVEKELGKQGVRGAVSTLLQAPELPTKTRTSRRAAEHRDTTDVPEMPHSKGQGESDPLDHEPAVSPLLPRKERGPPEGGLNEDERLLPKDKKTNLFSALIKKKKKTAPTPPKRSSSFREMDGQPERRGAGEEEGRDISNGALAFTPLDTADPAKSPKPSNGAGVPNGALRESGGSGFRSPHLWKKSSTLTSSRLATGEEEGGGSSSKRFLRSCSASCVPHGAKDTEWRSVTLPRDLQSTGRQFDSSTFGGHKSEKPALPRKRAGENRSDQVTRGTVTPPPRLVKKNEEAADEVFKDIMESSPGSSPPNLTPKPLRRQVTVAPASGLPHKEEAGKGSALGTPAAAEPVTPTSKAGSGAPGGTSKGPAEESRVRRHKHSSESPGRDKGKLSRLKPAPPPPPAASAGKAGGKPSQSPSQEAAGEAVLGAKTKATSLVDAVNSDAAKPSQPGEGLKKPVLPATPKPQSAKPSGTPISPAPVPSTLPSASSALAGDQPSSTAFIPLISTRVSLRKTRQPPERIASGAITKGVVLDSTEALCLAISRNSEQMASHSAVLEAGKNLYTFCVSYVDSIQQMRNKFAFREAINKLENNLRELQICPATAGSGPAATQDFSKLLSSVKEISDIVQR

IC50 [nM] | Structure (SMILES)
3 | O=C(Nc1ccc(OC(F)(F)F)cc1)c1cnc(C2CCOCC2)c(-c2cncnc2)c1
233 | O=C(Nc1ccc(CC(F)(F)F)cc1)c1cccc(-c2cncnc2)c1

From ChEMBL document CHEMBL3886649, “Compounds and compositions for inhibiting the activity of ABL1, ABL2 and BCR-ABL1” (2016)
